# Assays:
# [1] = system: Candida parapsilosis and spores of Aspergillus niger; experiment: summary of tests with Candida parapsilosis and spores of Aspergillus niger; assay type: cell-based; set-up: key to synergistic effect in mixtures: + = low but significant; ++ = good; +++ = very good; conditions: for concentration without sufficient antimicrobial activity: conventional plant protection agent alone; for synergistic effect in mixtures: plant protection agent in mixtures (M1-M7, Table 2)
# Procedure: (§1) A specific in vitro test system was designed with certified tester strains from Candida parapsilosis (DSM 70125) and spores from Aspergillus niger (DSM 1957) to define antimicrobial activities and synergistic effects. In all experiments freshly grown cultures of the listed microorganisms were adjusted to a cell number of about 10^5 in a 200 μl volume of the test solutions. Test solutions are in general: a) sterile water (H2O) as a negative control, b) conventional plant protection agent alone c) specific mixtures of essential oils, detergents, metal ions and organic acids, d) a plant protection composition according to the invention.
# (§2) After a residence time of 15 min. (Candida parapsilosis) or 60 min. (Aspergillus niger) at room temperature the 200 μl samples containing the microorganisms and the test solutions were diluted and were plated in dilutions of 0, 10^−1 and 10^−2 with aliquots of 10 μl each onto growth media. After an incubation period of 2-5 days at 30° C. the grown colonies were determined and documented by digital photography.
# [2] = system: Candida parapsilosis (DSM 70125); experiment: in vitro test of antimicrobial activity and synergistic effects on suspension cultures of Candida parapsilosis; assay type: cell-based; conditions: FIG. 4; for antimicrobial activities against Candida parapsilosis: agent alone at three concentrations (0.05%, 0.025%, 0.01%); for synergistic effect against Candida parapsilosis: in combination with mixture M1, all three concentrations (0.05%, 0.025%, 0.01%)
# Procedure: as §1, §2
Compound,concentration without sufficient antimicrobial activity [1] [%],synergistic effect in mixtures [1],antimicrobial activities against Candida parapsilosis [2],synergistic effect against Candida parapsilosis [2]
"OC(Cc1ccccc1Cl)(Cn1nc[nH]c1=S)C1(Cl)CC1 (centres unmarked) [F2, Prothioconazole]",0.05,+,–,–
"[Cl-].[Cu+2].[Cu+2].[OH-].[OH-].[OH-] [F7, Copperoxychlorid]",0.05,++,–,–
"N#Cc1c(Cl)c(Cl)c(Cl)c(C#N)c1Cl [F5, Chlorothalonil]",0.05,++,do not show sufficient antimicrobial activities,show synergistic effects
"CO/C=C(/C(=O)OC)c1ccccc1Oc1cc(Oc2ccccc2C#N)ncn1 [F6, Azoxystrobin]",0.07,+,–,–
"CCCOC(=O)NCCCN(C)C [F1, Propamocarb]",0.05,+,–,–
Mancozeb [F4],0.05,+++,do not show sufficient antimicrobial activities,show synergistic effects
"CCNC(=O)NC(=O)/C(C#N)=N/OC [F3, Curzate]",0.01,+++,do not show sufficient antimicrobial activities,show synergistic effects
